Values quoted from earlier work as cited in patent US20150290158A1, “X-RAY CONTRAST MEDIA COMPOSITIONS AND METHODS OF USING THE SAME TO TREAT, REDUCE OR DELAY THE ONSET OF CNS INFLAMMATION AND INFLAMMATION ASSOCIATED CONDITIONS” (priority 2012, published 2015).
Peptide text beside a SMILES is read from it.

Columns and labels:
TNF-alpha = details: in vitro
mast cell degranulation = details: in vitro, immunological and non-immunological stimuli
[1] = test system: allergen induced nasal obstruction; details: used as a nasal spray, in vivo
[2] = target: angiotensin converting enzyme (ACE) (Homo sapiens, UniProt P12821); details: compared with commercial iopamidol (contains chelator); from Lasser et al., 1990
Chain of angiotensin converting enzyme (ACE) (P12821 30-1306, species assumed): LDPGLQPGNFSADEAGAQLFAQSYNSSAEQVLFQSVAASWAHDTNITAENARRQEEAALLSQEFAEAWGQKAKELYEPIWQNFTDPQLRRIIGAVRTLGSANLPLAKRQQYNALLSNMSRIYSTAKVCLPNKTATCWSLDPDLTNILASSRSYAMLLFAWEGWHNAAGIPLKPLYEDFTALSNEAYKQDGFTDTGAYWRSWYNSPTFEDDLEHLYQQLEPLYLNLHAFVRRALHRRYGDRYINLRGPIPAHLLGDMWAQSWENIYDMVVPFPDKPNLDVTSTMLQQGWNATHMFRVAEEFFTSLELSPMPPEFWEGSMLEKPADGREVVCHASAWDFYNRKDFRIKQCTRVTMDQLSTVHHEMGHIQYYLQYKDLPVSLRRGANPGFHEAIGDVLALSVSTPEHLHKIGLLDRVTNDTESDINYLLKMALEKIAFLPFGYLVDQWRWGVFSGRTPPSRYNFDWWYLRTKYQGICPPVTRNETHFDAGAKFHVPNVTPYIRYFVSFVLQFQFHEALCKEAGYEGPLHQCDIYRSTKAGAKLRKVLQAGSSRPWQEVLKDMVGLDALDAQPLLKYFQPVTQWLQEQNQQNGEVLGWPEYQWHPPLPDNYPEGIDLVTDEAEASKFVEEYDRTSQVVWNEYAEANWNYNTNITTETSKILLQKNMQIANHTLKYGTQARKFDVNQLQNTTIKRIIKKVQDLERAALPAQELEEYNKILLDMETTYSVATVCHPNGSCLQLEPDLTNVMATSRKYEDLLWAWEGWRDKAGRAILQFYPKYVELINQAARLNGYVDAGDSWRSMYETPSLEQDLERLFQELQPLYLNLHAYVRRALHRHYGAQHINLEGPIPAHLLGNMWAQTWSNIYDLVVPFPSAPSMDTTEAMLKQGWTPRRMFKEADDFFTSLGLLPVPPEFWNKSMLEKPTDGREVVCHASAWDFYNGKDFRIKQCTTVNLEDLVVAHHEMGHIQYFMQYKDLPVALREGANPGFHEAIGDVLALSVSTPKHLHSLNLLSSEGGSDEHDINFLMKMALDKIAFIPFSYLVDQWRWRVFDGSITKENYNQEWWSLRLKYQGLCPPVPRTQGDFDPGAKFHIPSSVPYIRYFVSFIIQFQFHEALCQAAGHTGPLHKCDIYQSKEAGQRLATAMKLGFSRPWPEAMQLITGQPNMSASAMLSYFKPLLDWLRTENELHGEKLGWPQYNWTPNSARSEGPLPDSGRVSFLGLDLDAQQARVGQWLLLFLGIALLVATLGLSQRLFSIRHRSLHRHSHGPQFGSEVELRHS

O=C(O)c1cc(=O)c2c(OCC(O)COc3cccc4oc(C(=O)O)cc(=O)c34)cccc2o1 [Sodium cromoglycate]
inhibition of TNF-alpha (TNF-alpha): inhibited TNF-alpha in vitro

CC(=O)N[C@@H](CC(=O)[O-])C(=O)N[C@@H](CCC(=O)[O-])C(=O)O.[Mg+2] [magnesium salt of n-acetyl aspartyl glutamic acid] (Ac-Asp-Glu-OH)
mast cell degranulation (mast cell degranulation): inhibit mast cell degranulation
allergen induced nasal obstruction [1]: reduce allergen induced nasal obstruction

CCCc1c2oc(C(=O)[O-])cc(=O)c2cc2c(=O)cc(C(=O)[O-])n(CC)c12.[Na+].[Na+] [nedocrimal sodium]
inhibition of TNF-alpha (TNF-alpha): inhibited TNF-alpha in vitro

C[C@H](O)C(=O)Nc1c(I)c(C(=O)NC(CO)CO)c(I)c(C(=O)NC(CO)CO)c1I [purified iopamidol, iopamidol]
inhibition of ACE [2]: diminishes the inhibition ACE significantly
